In patent US9505762B2, “Purine derivatives as CB2 receptor agonists” (Hoffmann-La Roche Inc., priority 2013, dated 2016) one finds EC50 data, which are given here for 32 compounds.

The term EC50 denotes the concentration needed to bring the measured effect to its halfway point.

One experiment has as its target human CB1 receptors (Homo sapiens (Human), UniProt P21554). Nature of the experiment: functional cAMP assay, CB1. The experiment is classed as cell-based. The note with it: CHO cells expressing human CB1. As to the method:
(§1) The growth medium was exchanged with Krebs Ringer Bicarbonate buffer with 1 mM IBMX and incubated at 30° C. for 30 min. Compounds were added to a final assay volume of 100 μl and incubated for 30 min at 30° C. Using the cAMP-Nano-TRF detection kit the assay (Roche Diagnostics) was stopped by the addition of 50 μl lysis reagent (Tris, NaCl, 1.5% Triton X100, 2.5% NP40, 10% NaN3) and 50 μl detection solutions (20 μM mAb Alexa700-cAMP 1:1, and 48 μM Ruthenium-2-AHA-cAMP) and shaken for 2 h at room temperature. The time-resolved energy transfer is measured by a TRF reader (Evotec Technologies GmbH), equipped with a ND:YAG laser as excitation source. The plate is measured twice with the excitation at 355 nm and at the emission with a delay of 100 ns and a gate of 100 ns, total exposure time 10 s at 730 (bandwidth 30 nm) or 645 nm (bandwidth 75 nm), respectively.
(§2) EC50 values were determined using Activity Base analysis (ID Business Solution, Limited).
In general terms: Cyclic AMP is a second messenger, typically raised through Gs and lowered through Gi signalling.

Another experiment has as its target human CB2 receptors (Homo sapiens (Human), UniProt P34972). Nature of the experiment: functional cAMP assay, CB2. The note with it: CHO cells expressing human CB2. The experiment is classed as cell-based. As to the method:
as §1, §2

Bounds are passed on as bounds.

Chain of human CB1 receptors (P21554 whole entry): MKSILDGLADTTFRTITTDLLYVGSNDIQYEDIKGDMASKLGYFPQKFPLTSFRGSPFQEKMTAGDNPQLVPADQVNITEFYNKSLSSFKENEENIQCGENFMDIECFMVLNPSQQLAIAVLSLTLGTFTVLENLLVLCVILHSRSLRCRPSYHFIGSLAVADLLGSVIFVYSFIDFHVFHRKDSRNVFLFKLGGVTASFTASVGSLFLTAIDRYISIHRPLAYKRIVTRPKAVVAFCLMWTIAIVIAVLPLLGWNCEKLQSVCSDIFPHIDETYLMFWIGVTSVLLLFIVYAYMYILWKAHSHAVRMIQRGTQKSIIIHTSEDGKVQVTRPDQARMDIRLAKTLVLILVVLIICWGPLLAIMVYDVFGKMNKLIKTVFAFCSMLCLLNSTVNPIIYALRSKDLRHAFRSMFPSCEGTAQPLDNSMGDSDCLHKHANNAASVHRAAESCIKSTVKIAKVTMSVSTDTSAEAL
Chain of human CB2 receptors (P34972 whole entry): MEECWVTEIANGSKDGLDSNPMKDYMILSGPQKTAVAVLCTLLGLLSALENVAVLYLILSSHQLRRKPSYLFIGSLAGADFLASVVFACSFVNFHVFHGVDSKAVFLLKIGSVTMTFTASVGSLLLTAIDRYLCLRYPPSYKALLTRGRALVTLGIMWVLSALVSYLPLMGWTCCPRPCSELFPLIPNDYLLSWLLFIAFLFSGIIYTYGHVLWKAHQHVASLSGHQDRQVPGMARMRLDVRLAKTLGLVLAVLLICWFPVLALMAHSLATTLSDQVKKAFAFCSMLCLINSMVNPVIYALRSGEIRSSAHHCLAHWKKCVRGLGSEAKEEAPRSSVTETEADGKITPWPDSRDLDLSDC

Regarding `CC(C)(C)c1nc(N2CCC(F)(F)C2)c2ncn(CC(=O)c3ccccc3Cl)c2n1` [Example 17, 2-[2-tert-butyl-6-(3,3-difluoropyrrolidin-1-yl)purin-9-yl]-1-(2-chlorophenyl)ethanone], the EC50 is above 10000 nM on human CB1 receptors and 3.5 nM at human CB2 receptors.
In the case of `CC(C)(C)c1nc(N2CCC(F)(F)C2)c2ncn(Cc3ccccc3S(C)(=O)=O)c2n1` [Example 18, 2-tert-butyl-6-(3,3-difluoropyrrolidin-1-yl)-9-[(2-methylsulfonylphenyl)methyl]purine], the results for the EC50 on human CB1 receptors and on human CB2 receptors were above 10000 nM and 3.3 nM, respectively.
For the compound `COc1ccc(Cn2cnc3c(N4CCC(F)(F)C4)nc(C(C)(C)C)nc32)cc1` [Example 20, 2-tert-butyl-6-(3,3-difluoropyrrolidin-1-yl)-9-[(4-methoxyphenyl)methyl]purine], the figures for the EC50 on human CB1 receptors and on human CB2 receptors were above 10000 nM and 12.5 nM, respectively.
Take `CC(C)(C)c1nc(N2CCC(F)(F)C2)c2ncn(Cc3ncccc3Cl)c2n1` [Example 21, 2-tert-butyl-9-[(3-chloropyridin-2-yl)methyl]-6-(3,3-difluoropyrrolidin-1-yl)purine]: the EC50 at human CB1 receptors is above 10000 nM; on human CB2 receptors it was 2.2 nM.
Regarding `CC(C)(C)c1nc(N2CCC(O)C2)c2ncn(Cc3ccccc3Cl)c2n1` (stereo not shown) [Example 22, 1-[2-tert-butyl-9-[(2-chlorophenyl)methyl]purin-6-yl]pyrrolidin-3-ol], the EC50 on human CB1 receptors is above 10000 nM; on human CB2 receptors it was 5.7 nM.
The matching figures for `CC(C)(C)c1nc(N2CCC(F)(F)C2)c2ncn(CCc3cccnc3)c2n1` [Example 23, 2-tert-butyl-6-(3,3-difluoropyrrolidin-1-yl)-9-(2-pyridin-3-ylethyl)purine]: above 10000 nM and 4.4 nM.
For `CC(C)(C)c1nc(N2CCC(F)(F)C2)c2ncn(CC(=O)c3ccccn3)c2n1` [Example 24, 2-[2-tert-butyl-6-(3,3-difluoropyrrolidin-1-yl)purin-9-yl]-1-pyridin-2-ylethanone], in that order: above 10000 nM and 69.2 nM.
Regarding `CC(C)(C)c1nc(N2CCC(O)C2)c2ncn(Cc3cccc(Cl)c3)c2n1` (stereo not shown) [Example 25, 1-[2-tert-butyl-9-[(3-chlorophenyl)methyl]purin-6-yl]pyrrolidin-3-ol], the EC50 was above 10000 nM at human CB1 receptors and 58.8 nM on human CB2 receptors.
The matching figures for `CC(C)(C)c1nc(N2CCC(F)(F)C2)c2ncn(C3CS(=O)(=O)C3)c2n1` [Example 27, 3-[2-tert-butyl-6-(3,3-difluoropyrrolidin-1-yl)purin-9-yl]thietane 1,1-dioxide]: above 10000 nM and 14.1 nM.
Consider `CC(C)(C)c1nc(N2CCC(O)C2)c2ncn(Cc3ccccc3C(F)(F)F)c2n1` (stereo not shown) [Example 28, 1-[2-tert-butyl-9-[[2-(trifluoromethyl)phenyl]methyl]purin-6-yl]pyrrolidin-3-ol], for which the EC50 on human CB1 receptors is above 10000 nM; at human CB2 receptors, 1 nM.
The matching figures for `Cc1noc(Cn2cnc3c(N4CCC(O)C4)nc(C(C)(C)C)nc32)n1` (stereo not shown) [Example 29, 1-[2-tert-butyl-9-[(3-methyl-1,2,4-oxadiazol-5-yl)methyl]purin-6-yl]pyrrolidin-3-ol]: above 10000 nM and 427 nM.
Regarding `Cn1nnnc1Cn1cnc2c(N3CCC(O)C3)nc(C(C)(C)C)nc21` (stereo not shown) [Example 30, 1-[2-tert-butyl-9-[(1-methyltetrazol-5-yl)methyl]purin-6-yl]pyrrolidin-3-ol], the EC50 is above 10000 nM on human CB1 receptors and 301 nM on human CB2 receptors.
Take `COc1ccc(Cn2cnc3c(N4CCC(O)C4)nc(C(C)(C)C)nc32)cc1` (stereo not shown) [Example 31, 1-[2-tert-butyl-9-[(4-methoxyphenyl)methyl]purin-6-yl]pyrrolidin-3-ol]: the half-maximal effective concentration (EC50) on human CB1 receptors was above 10000 nM; at human CB2 receptors it was 21.4 nM.
Consider `CC(C)(C)c1nc(N2CCC(O)C2)c2ncn(Cc3ncccc3Cl)c2n1` (stereo not shown) [Example 32, 1-[2-tert-butyl-9-[(3-chloropyridin-2-yl)methyl]purin-6-yl]pyrrolidin-3-ol], for which the figures for the EC50 on human CB1 receptors and on human CB2 receptors were above 10000 nM and 3.4 nM, respectively.
As to `CC(C)(C)c1nc(N2CCC(O)C2)c2ncn(Cc3cccnc3Cl)c2n1` (stereo not shown) [Example 33, 1-[2-tert-butyl-9-[(2-chloropyridin-3-yl)methyl]purin-6-yl]pyrrolidin-3-ol], the results for the EC50 at human CB1 receptors and at human CB2 receptors were above 10000 nM and 3.4 nM, respectively.
`CC(C)(C)c1nc(N2CCC(O)C2)c2ncn(Cc3ccccc3S(C)(=O)=O)c2n1` (stereo not shown) [Example 34, 1-[2-tert-butyl-9-[(2-methylsulfonylphenyl)methyl]purin-6-yl]pyrrolidin-3-ol]: the values for the concentration giving a half-maximal response (EC50) at human CB1 receptors and at human CB2 receptors were above 10000 nM and 9 nM, respectively.
As to `CCn1cnc2c(N3CCC(O)C3)nc(C(C)(C)C)nc21` (stereo not shown) [Example 35, 1-(2-tert-butyl-9-ethylpurin-6-yl)pyrrolidin-3-ol], the EC50 is above 10000 nM on human CB1 receptors and 432 nM at human CB2 receptors.
`COCCn1cnc2c(N3CCC(O)C3)nc(C(C)(C)C)nc21` (stereo not shown) [Example 37, 1-[2-tert-butyl-9-(2-methoxyethyl)purin-6-yl]pyrrolidin-3-ol]: the EC50 is above 10000 nM on human CB1 receptors and 274 nM at human CB2 receptors.
For the compound `CC(C)(C)c1nc(N2CCC(O)C2)c2ncn(CCc3ccccc3)c2n1` (stereo not shown) [Example 38, 1-[2-tert-butyl-9-(2-phenylethyl)purin-6-yl]pyrrolidin-3-ol], the concentration giving a half-maximal response (EC50) at human CB1 receptors is above 10000 nM; on human CB2 receptors it was 20.3 nM.
`Cc1ccc(Cn2cnc3c(N4CCC(O)C4)nc(C(C)(C)C)nc32)cc1` (stereo not shown) [Example 39, 1-[2-tert-butyl-9-[(4-methylphenyl)methyl]purin-6-yl]pyrrolidin-3-ol]: the EC50 on human CB1 receptors was above 10000 nM; on human CB2 receptors, 16.9 nM.
`CC(C)(C)c1nc(N2CCC(O)C2)c2ncn(CC3CCCCC3)c2n1` (stereo not shown) [Example 40, 1-[2-tert-butyl-9-(cyclohexylmethyl)purin-6-yl]pyrrolidin-3-ol]: the results for the EC50 on human CB1 receptors and at human CB2 receptors were above 10000 nM and 71.2 nM, respectively.
For the compound `CC(C)(C)c1nc(N2CCC(O)C2)c2ncn(Cc3ccc(F)cc3Cl)c2n1` (stereo not shown) [Example 42, 1-[2-tert-butyl-9-[(2-chloro-4-fluorophenyl)methyl]purin-6-yl]pyrrolidin-3-ol], the EC50 at human CB1 receptors is above 10000 nM; on human CB2 receptors, 3.7 nM.
The matching figures for `Cc1nonc1Cn1cnc2c(N3CCC(O)C3)nc(C(C)(C)C)nc21` (stereo not shown) [Example 43, 1-[2-tert-butyl-9-[(4-methyl-1,2,5-oxadiazol-3-yl)methyl]purin-6-yl]pyrrolidin-3-ol]: above 10000 nM and 16.6 nM.
The matching figures for `CC(C)(C)c1nc(N2CCC(O)C2)c2ncn(Cc3c[nH]nc3C(F)(F)F)c2n1` (stereo not shown) [Example 44, 1-[2-tert-butyl-9-[[3-(trifluoromethyl)-1H-pyrazol-4-yl]methyl]purin-6-yl]pyrrolidin-3-ol]: above 10000 nM and 14.8 nM.
For `CC(C)(C)c1nc(N2CCC(O)C2)c2ncn(CCC(F)(F)F)c2n1` (stereo not shown) [Example 45, 1-[2-tert-butyl-9-(3,3,3-trifluoropropyl)purin-6-yl]pyrrolidin-3-ol], in that order: above 10000 nM and 49.6 nM.
For `CC(C)(C)c1nc(N2CCC(O)C2)c2ncn(C3CCOC3)c2n1` (stereo not shown) [Example 46, 1-[2-tert-butyl-9-(oxolan-3-yl)purin-6-yl]pyrrolidin-3-ol], the EC50 was above 10000 nM at human CB1 receptors and 139 nM on human CB2 receptors.
Consider `CC(C)(C)c1nc(N2CCC(O)C2)c2ncn(CC(=O)c3ccccc3Cl)c2n1` (stereo not shown) [Example 47, 2-[2-tert-butyl-6-(3-hydroxypyrrolidin-1-yl)purin-9-yl]-1-(2-chlorophenyl)ethanone], for which the EC50 on human CB1 receptors is above 10000 nM; at human CB2 receptors, 102 nM.
Turning to `CC(=O)N[C@H]1CCN(c2nc(C(C)(C)C)nc3c2ncn3Cc2cccc(Cl)c2)C1` [Example 49, N—[(S)-1-[2-tert-butyl-9-[(3-chlorophenyl)methyl]purin-6-yl]pyrrolidin-3-yl]acetamide], the concentration giving a half-maximal response (EC50) on human CB1 receptors is above 10000 nM; at human CB2 receptors, 311 nM.
As to `CC(=O)N[C@H]1CCN(c2nc(C(C)(C)C)nc3c2ncn3Cc2ccc(Cl)cc2)C1` [Example 50, N—[(S)-1-[2-tert-butyl-9-[(4-chlorophenyl)methyl]purin-6-yl]pyrrolidin-3-yl]acetamide], the figures for the 50% effective concentration (EC50) at human CB1 receptors and on human CB2 receptors were above 10000 nM and 534 nM, respectively.
Turning to `CC(=O)N[C@H]1CCN(c2nc(C(C)(C)C)nc3c2ncn3Cc2ccccc2C(F)(F)F)C1` [Example 51, N—[(S)-1-[2-tert-butyl-9-[[2-(trifluoromethyl)phenyl]methyl]purin-6-yl]pyrrolidin-3-yl]acetamide], the values for the EC50 at human CB1 receptors and on human CB2 receptors were above 10000 nM and 64.7 nM, respectively.
For `CC(=O)N[C@H]1CCN(c2nc(C(C)(C)C)nc3c2ncn3Cc2ccccc2S(C)(=O)=O)C1` [Example 52, N—[(S)-1-[2-tert-butyl-9-[(2-methylsulfonylphenyl)methyl]purin-6-yl]pyrrolidin-3-yl]acetamide], the EC50 at human CB1 receptors is above 10000 nM; at human CB2 receptors it was 229 nM.
On to `CC(=O)N[C@H]1CCN(c2nc(C(C)(C)C)nc3c2ncn3Cc2cccnc2Cl)C1` [Example 53, N—[(S)-1-[2-tert-butyl-9-[(2-chloropyridin-3-yl)methyl]purin-6-yl]pyrrolidin-3-yl]acetamide], for which the EC50 at human CB1 receptors is above 10000 nM; on human CB2 receptors it was 175 nM.
